Legend:
[1] = tested on: BALB/C mouse spleen cell and SP2/0 mouse myeloma cell fusion expressing a murine anti-Liv-1 antibody; experiment: Antibody core fucosylation in hybridoma, BALB/C-SP2/0 fusion; type: cell-based; conditions: 50 μM in Hybridoma Serum Free Media
Method: Three antibody expressing hybridoma lines were tested to determine the effect of alkynyl fucose peracetate on antibody core fucosylation from these cell lines. These hybridomas were: 1) a BALB/C mouse spleen cell and a P2X63-AG 8.653 mouse myeloma cell fusion expressing the chimeric anti-ley antigen antibody BR96; 2) a BALB/C mouse spleen cell and a NS0 mouse myeloma cell fusion expressing a murine anti-Liv1 antibody; and 3) a BALB/C mouse spleen cell and a SP2/0mouse myeloma cell fusion expressing a murine anti-Liv-1 antibody. These hybridomas were cultured at 3.0×10^5 cells per mL in 30 mLs of Hybridoma Serum Free Media (Invitrogen, Carlsbad Calif.) supplemented with 50 μM alkynyl fucose peracetate at 37° C., 5% CO2 and shaking at 100 RPM in a 125 mL shake flask. Cultures were fed on day 3 with 2% volume of a feed media. On day four, the culture was split 1:4 into fresh culture media. Cultures were fed with a 6% volume of feed media on days 5, 7, 9 and 10. Conditioned media was collected when the viability of the culture dropped below 60% or on day 13 by passing culture through a 0.2 μm filter.
Antibody purification was performed by applying the conditioned media to a protein A column pre-equilibrated with 1× phosphate buffered saline (PBS), pH 7.4. […]

[2] = tested on: antibody core fucosylation in CHO DG44 cell line producing h1F6; experiment: Effect of fucose analogs on antibody core fucosylation (h1F6 from CHO DG44 culture); type: cell-based, Chinese hamster; conditions: Cricetulus griseus, CHO-DG44, 120 h, Table 1, day 5; for inhibition at 50 µM: 50 μM fucose analog, inhibition of core fucosylation of h1F6, read-out: Inhibition at 50 μM; for inhibition at 1000 µM: 1 mM fucose analog, ND = non-core fucosylated antibody not detected due to poor antibody production or inhibition of cell growth
Method: Media was supplemented with insulin like growth factor (IGF), penicillin, streptomycin and either 1 mM or 50 μM of the fucose analog (prepared as described supra). On day 5 post inoculation, the culture was centrifuged at 13000 RPM for 5 minutes to pellet cells; antibodies were then purified from supernatant.
(§1) Antibody purification was performed by applying the conditioned media to protein A resin pre-equilibrated with 1× phosphate buffered saline (PBS), pH 7.4. After washing resin with 20 resin bed volumes of 1×PBS, antibodies were eluted with 5 resin bed volumes of Immunopure IgG elution buffer (Pierce Biotechnology, Rockford, Ill.). A 10% volume of 1M tris pH 8.0 was added to neutralize the eluted fraction.

[3] = tested on: CHO DG44 cell line producing h1F6; experiment: Non-core fucosylated antibody production in different culture media; type: cell-based, Chinese hamster; conditions: 50 μM; PowerCHO versus OptiCHO media, day 5
Method: To determine the effect of different culture media on non-core fucosylated antibody production, a CHO DG44 cell line producing a humanized IgG1 anti-CD70 monoclonal antibody, h1F6 (see International Patent Publication WO 06/113909), was cultured in various media. The cells (7.5×10^5 cells per mL in 2 mLs) were cultured in PowerCHO (Lonza Group Ltd., Basil, Switzerland) or OptiCHO (Invitrogen, Carlsbad, Calif.) media CHO culture media at 37°, 5% CO2 and shaking at 100 RPM in a 6 well tissue culture plate. Media was supplemented with insulin like growth factor (IGF), penicillin, streptomycin and 50 μM alkynyl fucose peracetate. On day 5 post-inoculation, the culture was centrifuged at 13000 RPM for 5 minutes to pellet cells; antibodies were then purified from supernatant.
as §1, with “fraction. Production of non-core fucosylated antibody was determined as described in Example 7. The proportion of non-core fucosylated to core fucosylated antibody produced from each media was similar.” for “fraction.”

[4] = tested on: core fucosylation of h1F6 in CHO DG44 cell line; experiment: Capillary electrophoresis of oligosaccharides of h1F6 expressed in the presence of alkynyl fucose peracetate; type: cell-based, Chinese hamster; conditions: h1F6 expressed with 50 μM alkynyl fucose peracetate; β-galactosidase treated sample (FIG. 1C)
Method: To determine the effect of alkynyl fucose peracetate on glycosylation of antibodies, a CHO DG44 cell line expressing a humanized IgG1 anti-CD70 monoclonal antibody, h1F6 (see International Patent Publication WO 06/113909) was cultured at 3.0×10^5 cells per mL in 30 mLs of CHO culture media at 37°, 5% CO2, by shaking at 100 RPM in 125 mL shake flasks. The CHO culture media was supplemented with insulin like growth factor (IGF), penicillin, streptomycin and either 50 or 100 μM alkynyl fucose peracetate (prepared as described in Example 1). […]
To further characterize the glycans on the h1F6 antibodies from Example 3, capillary electrophoresis was performed. […] Labeled oligosaccharides were diluted with water and analyzed by capillary electrophoresis using a Beckman Coulter PA-800 in a N-CHO coated capillary (Beckman Coulter). […] Labeled oligosaccharides were detected using laser induced fluorescence (LFI) with an excitation wavelength of 488λ. Emission fluorescence was detected at 520λ.
Samples of the antibodies were also treated with β-galactosidase to remove galactose. […] Labeled oligosaccharides were diluted with water and analyzed by capillary electrophoresis using a Beckman Coulter PA-800, in a N-CHO coated capillary (Beckman Coulter) running in 40 mM EACA, 0.2% HPMC at pH 4.5. […] Labeled oligosaccharides were detected using laser induced fluorescence (LFI) with an excitation wavelength of 488λ. […]

[5] = tested on: CHO DG44 cell line producing h1F6; experiment: Incorporation of fucose analogs into antibodies (h1F6 from CHO DG44 culture); type: cell-based, Chinese hamster; conditions: 1 mM
Method: The effects of fucose analogs on antibody core fucosylation were tested at concentrations of […] and 1 mM as follows: A CHO DG44 cell line producing a humanized IgG1 anti-CD70 monoclonal antibody, h1F6 (see International Patent Publication WO 06/113909) was cultured at 7.5×10^5 cells per mL in 2 mLs of CHO culture media at 37°, 5% CO2 and shaking at 100 RPM in a 6 well tissue culture plate. Media was supplemented with insulin like growth factor (IGF), penicillin, streptomycin and either 1 mM or 50 μM of the fucose analog (prepared as described supra). On day 5 post inoculation, the culture was centrifuged at 13000 RPM for 5 minutes to pellet cells; antibodies were then purified from supernatant.
as §1, with “fraction. The amount of non-core fucosylated antibody produced was determined as described in Example 7.” for “fraction.”
Certain other fucose analogs were tested for their ability to be incorporated into antibodies. These fucose analogs were tested at concentrations of 50 μM and 1 mM using the methodology as described above and in Example 7.

| SMILES | core fucosylation [1] | inhibition at 50 µM [2] [%] | inhibition at 1000 µM [2] [%] | proportion of non-core fucosylated to core fucosylated antibody produced from each media [3] | oligosaccharide core fucosylated [4] [%] | oligosaccharide non-core fucosylated [4] | % Incorporation [5] |
| --- | --- | --- | --- | --- | --- | --- | --- |
| C#CC(OC(C)=O)[C@@H](OC(C)=O)[C@@H](OC(C)=O)[C@@H](C=O)OC(C)=O (stereo partly drawn) [Alkynyl fucose peracetate, 5-ethynylarabinose tetraacetate] | inhibited | > 80 | > 80 | similar | 6 | approximately 85% | – |
| C#CC[C@@H]1OC(OC(C)=O)[C@@H](OC(C)=O)[C@H](OC(C)=O)[C@@H]1OC(C)=O (stereo partly drawn) [propargyl fucose tetraacetate, (3S,4R,5R,6S)-6-(prop-2-ynyl)-tetrahydro-2H-pyran-2,3,4,5-tetrayl tetraacetate] | – | ~10 | 10 to 20 | – | – | – | 80% (1 mM) |
